The record followed here is the supplement of paper PMC11616607.

In the first assay the test system is OVCAR4. In words: drug sensitivity score (DSS) from 5-point dose-response viability curve (DSS (area-under-curve based score)); higher = more sensitive (stronger growth inhibition or killing); extreme values may be limits of the assay. To be noted: exposure time: 72 h; concentration range: 5 concentrations over 10,000-fold range. The method, boiled down:
(§1)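 Ovarian cancer and normal ovarian cell lines were tested in 384-well plates, with drugs dispensed acoustically (Echo 550) in DMSO or water at five concentrations covering a 10,000-fold range. After 1,500 cells per well were added, plates were incubated for 3 days at 37°C and 5% CO2, and viability was read by CellTiter-Glo luminescence on a PHERAstar FS. Breeze software gave a drug sensitivity score for each cell line and drug, where a higher score means greater sensitivity. A value of zero means no response.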
In turn, `C[C@H]1CNCCCN1S(=O)(=O)c1cccc2cncc(F)c12` [Ripasudil] gave a drug sensitivity score of 0.
Still for that read-out and setting: the value for `C=CC(=O)Nc1cccc(Nc2nc(Nc3ccc(N4CCN(C(C)=O)CC4)cc3OC)ncc2C(F)(F)F)c1` [Rociletinib] was 3; that for `O=C(CCCCCCNC(=O)c1cnc(N(c2ccccc2)c2ccccc2)nc1)NO` [Rocilinostat] was 1.4; that for `C/C=C1\NC(=O)[C@H]2CSSCC/C=C/[C@H](CC(=O)N[C@H](C(C)C)C(=O)N2)OC(=O)[C@H](C(C)C)NC1=O` [Romidepsin] was 20.8.
For the compound `Cc1nc(C(=O)NCC(=O)O)c(O)c2ccc(Oc3ccccc3)cc12` [Roxadustat], the drug sensitivity score was determined as 0.3.
Same read-out and setting: the value for `CN(C)C[C@@H]1CCn2cc(c3ccccc32)C2=C(C(=O)NC2=O)c2cn(c3ccccc23)CCO1` [Ruboxistaurin] was 2.5; that for `CNCc1ccc(-c2[nH]c3cc(F)cc4c3c2CCNC4=O)cc1` [Rucaparib] was 0; that for `N#CC[C@H](C1CCCC1)n1cc(-c2ncnc3[nH]ccc23)cn1` [Ruxolitinib] was 0.
Same read-out and setting: in the case of `CC(C)N(CCCNC(=O)Nc1ccc(C(C)(C)C)cc1)C[C@H]1O[C@@H](n2cc(Br)c3c(N)ncnc32)[C@H](O)[C@@H]1O` [SGC0946] it was 0.1; in that of `COc1ccc(CCc2nc3cc(-c4c(C)noc4C)ccc3n2C[C@H](C)N2CCOCC2)cc1Cl` [SGC-CBP30], 2.
Compound `CN1CCC(CNc2ccc3ncc(-c4cccc(OC(F)(F)F)c4)n3n2)CC1` [SGI-1776] had a drug sensitivity score of 3.3.
On the same count and under the same terms, in the case of `CN(CC(=O)N(Cc1ccc(C2CCCCC2)cc1)c1ccc(C(=O)O)cc1)S(=O)(=O)c1c(F)c(F)c(F)c(F)c1F` [SH-4-54] it was 6.2.
The same measure, in the same setting: in the case of `CCc1c2c(nc3ccc(O)cc13)-c1cc3c(c(=O)n1C2)COC(=O)[C@]3(O)CC` [SN-38] it was 14.4; in that of `CC(C)(C)c1cnc(CSc2cnc(NC(=O)C3CCNCC3)s2)o1` [SNS-032], 13.9.
On the same count and under the same terms, the value for `Cc1cc2c(C(=O)NC[C@H](C)c3ccccc3)c(O)c(O)cc2c(O)c1-c1c(C)cc2c(C(=O)NC[C@H](C)c3ccccc3)c(O)c(O)cc2c1O` [Sabutoclax] was 8.3.

For another assay, the system named is OV90. Described as above. The note with it: exposure time: 72 h; concentration range: 5 concentrations over 10,000-fold range. In a few lines: as §1
`C[C@H]1CNCCCN1S(=O)(=O)c1cccc2cncc(F)c12` [Ripasudil] showed a drug sensitivity score of 0.
On the same count and under the same terms, in the case of `C=CC(=O)Nc1cccc(Nc2nc(Nc3ccc(N4CCN(C(C)=O)CC4)cc3OC)ncc2C(F)(F)F)c1` [Rociletinib] it was 5.5; in that of `O=C(CCCCCCNC(=O)c1cnc(N(c2ccccc2)c2ccccc2)nc1)NO` [Rocilinostat], 6; in that of `C/C=C1\NC(=O)[C@H]2CSSCC/C=C/[C@H](CC(=O)N[C@H](C(C)C)C(=O)N2)OC(=O)[C@H](C(C)C)NC1=O` [Romidepsin], 29.8.
In the case of `Cc1nc(C(=O)NCC(=O)O)c(O)c2ccc(Oc3ccccc3)cc12` [Roxadustat], the drug sensitivity score came to 0.
Same read-out and setting: in the case of `CN(C)C[C@@H]1CCn2cc(c3ccccc32)C2=C(C(=O)NC2=O)c2cn(c3ccccc23)CCO1` [Ruboxistaurin] it was 6.4; in that of `CNCc1ccc(-c2[nH]c3cc(F)cc4c3c2CCNC4=O)cc1` [Rucaparib], 1.7; in that of `N#CC[C@H](C1CCCC1)n1cc(-c2ncnc3[nH]ccc23)cn1` [Ruxolitinib], 0.1.
The same measure, in the same setting: the value for `CC(C)N(CCCNC(=O)Nc1ccc(C(C)(C)C)cc1)C[C@H]1O[C@@H](n2cc(Br)c3c(N)ncnc32)[C@H](O)[C@@H]1O` [SGC0946] was 2.3.
The same measure, in the same setting: in the case of `COc1ccc(CCc2nc3cc(-c4c(C)noc4C)ccc3n2C[C@H](C)N2CCOCC2)cc1Cl` [SGC-CBP30] it was 3.4; in that of `CN1CCC(CNc2ccc3ncc(-c4cccc(OC(F)(F)F)c4)n3n2)CC1` [SGI-1776], 5.6; in that of `CN(CC(=O)N(Cc1ccc(C2CCCCC2)cc1)c1ccc(C(=O)O)cc1)S(=O)(=O)c1c(F)c(F)c(F)c(F)c1F` [SH-4-54], 7.4.
`CCc1c2c(nc3ccc(O)cc13)-c1cc3c(c(=O)n1C2)COC(=O)[C@]3(O)CC` [SN-38] had a drug sensitivity score of 24.6.
Still for that read-out and setting: in the case of `CC(C)(C)c1cnc(CSc2cnc(NC(=O)C3CCNCC3)s2)o1` [SNS-032] it was 16.1; in that of `Cc1cc2c(C(=O)NC[C@H](C)c3ccccc3)c(O)c(O)cc2c(O)c1-c1c(C)cc2c(C(=O)NC[C@H](C)c3ccccc3)c(O)c(O)cc2c1O` [Sabutoclax], 11.2.

The test system of the next assay is CAOV3. The description is as above. To be noted: exposure time: 72 h; concentration range: 5 concentrations over 10,000-fold range. The method, boiled down:
as §1
Compound `C[C@H]1CNCCCN1S(=O)(=O)c1cccc2cncc(F)c12` [Ripasudil] had a drug sensitivity score of 0.
The compound `C=CC(=O)Nc1cccc(Nc2nc(Nc3ccc(N4CCN(C(C)=O)CC4)cc3OC)ncc2C(F)(F)F)c1` [Rociletinib] displayed a drug sensitivity score of 7.9.
Still for that read-out and setting: the value for `O=C(CCCCCCNC(=O)c1cnc(N(c2ccccc2)c2ccccc2)nc1)NO` [Rocilinostat] was 5.2.
The compound `C/C=C1\NC(=O)[C@H]2CSSCC/C=C/[C@H](CC(=O)N[C@H](C(C)C)C(=O)N2)OC(=O)[C@H](C(C)C)NC1=O` [Romidepsin] yielded a drug sensitivity score of 28.2.
As to `Cc1nc(C(=O)NCC(=O)O)c(O)c2ccc(Oc3ccccc3)cc12` [Roxadustat], the drug sensitivity score worked out at 1.3.
The same measure, in the same setting: the value for `CN(C)C[C@@H]1CCn2cc(c3ccccc32)C2=C(C(=O)NC2=O)c2cn(c3ccccc23)CCO1` [Ruboxistaurin] was 7; that for `CNCc1ccc(-c2[nH]c3cc(F)cc4c3c2CCNC4=O)cc1` [Rucaparib] was 0.
`N#CC[C@H](C1CCCC1)n1cc(-c2ncnc3[nH]ccc23)cn1` [Ruxolitinib] came in with a drug sensitivity score of 0.
Still for that read-out and setting: the value for `CC(C)N(CCCNC(=O)Nc1ccc(C(C)(C)C)cc1)C[C@H]1O[C@@H](n2cc(Br)c3c(N)ncnc32)[C@H](O)[C@@H]1O` [SGC0946] was 0; that for `COc1ccc(CCc2nc3cc(-c4c(C)noc4C)ccc3n2C[C@H](C)N2CCOCC2)cc1Cl` [SGC-CBP30] was 3.7; that for `CN1CCC(CNc2ccc3ncc(-c4cccc(OC(F)(F)F)c4)n3n2)CC1` [SGI-1776] was 5.1.
The same measure, in the same setting: in the case of `CN(CC(=O)N(Cc1ccc(C2CCCCC2)cc1)c1ccc(C(=O)O)cc1)S(=O)(=O)c1c(F)c(F)c(F)c(F)c1F` [SH-4-54] it was 8.1; in that of `CCc1c2c(nc3ccc(O)cc13)-c1cc3c(c(=O)n1C2)COC(=O)[C@]3(O)CC` [SN-38], 37.9; in that of `CC(C)(C)c1cnc(CSc2cnc(NC(=O)C3CCNCC3)s2)o1` [SNS-032], 16.2.
Regarding `Cc1cc2c(C(=O)NC[C@H](C)c3ccccc3)c(O)c(O)cc2c(O)c1-c1c(C)cc2c(C(=O)NC[C@H](C)c3ccccc3)c(O)c(O)cc2c1O` [Sabutoclax], the drug sensitivity score was 15.4.
